Entries after “also recorded” stand apart in the source; their conditions may differ.
What was measured:
[1] = test system: human endothelial cells and fibroblasts; experiment: Experiment of luminal formation: concurrent culture, CD31 staining, area of the lumen; assay type: cell-based; details: for effect on the luminal formation: Example 1, 0.1-20 mM; for effect on the luminal formation of HUVEC: Example 2 (36 species), incubation for 10 days; for antagonism of the luminal formation inhibitory effect by D-glucose: co-existence of 20 mM D-glucose; for inhibition of the acceleration of luminal formation by VEGF: with VEGF
Protocol: Using a concurrent culture system of human endothelial cells and fibroblasts planted on a 24-well plate (Kurabo Co., Osaka, Japan), the culture medium was replaced by culture media containing a variety of additives at the early stage of luminal formation. Every 3 days, the medium was exchanged with the additive; 10 day after incubation, the endothelial cell only was stained by using mouse anti-human CD31 antibody (Kurabo Co., Osaka, Japan), goat anti-mouse IgG AlkP Conjugate (Kurabo Co., Osaka, Japan), and BCPI (5-bromo-4-chloro-3-indolyl phosphate) (Kurabo Co., Osaka, Japan) to photograph. The visualized area of the lumen was measured by means of NIH image software.

[2] = test system: Human umbilical cord vascular endothelial cells (HUVEC); experiment: Experiment of growth: HUVEC cell number by WST-8 after 48 hrs; assay type: cell-based; details: for antagonism of the growth inhibitory effect by D-glucose: co-existence of 20 mM D-glucose; for inhibition at 20000 µM: 20 mM, read-out: inhibition of growth to the control group
Protocol: Human umbilical cord vascular endothelial cells (HUVEC) were purchased as primary cultured cells from KURABO (Kurabo Co., Osaka, Japan) and the cells up to P8 were used in experiments. The cells were inoculated on a 96-well plate at a rate of 3000 cells/well, and allowed to stand in Humedia EG2 (Kurabo) overnight (37° C., 5% CO2). Next morning, the medium was replaced by 90 μl of 2% FBS-containing Humedia EB2 (Kurabo), to which was then added 10 μl of additive, and after a lapse of 48 hrs the number of cells was counted. No medium was exchanged during this period. In counting, a tetrazolium salt WST-8 was added to each well (0.5 mM), and after 2 hrs the absorbance was measured at 450 nm. The tetrazolium salt added was reduced with an intracellular dehydrogenase to yield formazan depending on the number of cells in the well. In advance, the absorbance at 450 nm was confirmed to show a linearity within the range of 500 to 12000 cells in the well.

[3] = test system: HUVEC; experiment: 14C-glucose up-take in vascular endothelial cell; assay type: cell-based, human; details: sugars 20 mM (2 mM for 2DG), 48 hours; for effect on the glucose up-take of HUVEC: both culture media ([GLU]=0.1 mM and 4.5 mM), VEGF 10 ng/mL; for effect on the glucose up-take accelerated by VEGF: with VEGF 10 ng/mL
Protocol: Most of the physiological actions of monosaccharides are likely to be caused by the structural similarity to D-glucose, and one of the mechanisms is considered to be an influence on glucose metabolism. Then, in order to elucidate the influence on metabolism, the effect of HUVEC on the glucose up-take was examined for FRU, ALO, PSI, ALL, 2DG, MAN, and GAL. ^14C-Glucose was added to a culture medium, and the incorporated amount after 48 hours was counted by a scintillation counter. HUVEC was inoculated on a 24-well plate at a rate of 12000 cells/well. The medium was allowed to stand in 400 μL of Humedia EB2+2% FBS overnight. Next day, the medium was replaced by a medium containing ^14C-glucose. The medium used in replacement was the total 400 μL/well of medium containing ^14C-glucose (360 μL)+saline/VEGF (20 μL)+saline/RS (20 μL). The stock solution of ^14C-glucose 100 Bq/μL saline was diluted 10-fold with 2% FBS-containing medium (glucose-free or low glucose) to give a culture medium of 10 Bq/μL. The experiment was carried out on a lower glucose medium (final concentration [GLU]=0.1 mM) and on a high glucose medium ([GLU]=4.5 mM). ^14C-glucose was added at 3600 Bq/well. Further, FRU: D-fructose, ALO: D-allose, PSI: D-psicose, ALL: allitol, 2DG: 2-deoxy glucose, MAN: D-mannose, or GAL: D-galactose was added to the medium as an additive at 20 mM (provided 2 mM for 2DC). Irritation for growth was also carried out with VEGF (10 ng/mL). After a lapse of 48 hours, the well was washed twice with PBS, to which was then added 200 μL of 2% Triton, of which 180 μL was used as a sample for scintillation counter. The incorporation of ^14C-glucose into the HUVEC cells was calculated from the count in each well in the unit of nmol/well and depicted in a graph.

[4] = Basic safety tests (mutagenicity, biodegradable test, 3 acute toxicity tests); details: oral acute toxicity, skin and ophthalmic primary irritation, by a designated organ
Text: The most important and highest hurdle in the development of approved drugs/quasi drugs or foods is to confirm safety of the rare sugar as a new substance. As the most basic safety tests, mutagenicity, biodegradable test and 3 acute toxicity tests (oral acute toxicity test, skin primary irritation test, ophthalmic primary irritation test) are decided. Since rare sugars are monosaccharides naturally occurring in very small quantities, it is necessary to examine exactly, though they are expected to be safe. We requested of a designated organ to examine the basic safety test on 3 species of rare sugars, i.e., D-psicose, D-allose and allitol. As a result, it was confirmed that there was no problem in any of the rare sugars.

[5] = Example 2 (36 species), 48 hours

Row | Molecule | effect on the luminal formation ([1]; 10 days) | effect on the luminal formation of HUVEC [1] | antagonism of the luminal formation inhibitory effect by D-glucose [1] | inhibition of the acceleration of luminal formation by VEGF [1] | effect on the growth of HUVEC ([2]; Example 1, 0.1-20 mM, 48 hrs) | effect on the growth of HUVEC [2, 5] | antagonism of the growth inhibitory effect by D-glucose [2] | effect on the glucose up-take of HUVEC [3] | effect on the glucose up-take accelerated by VEGF [3] | inhibition at 20000 µM ([2]; Homo sapiens, HUVEC, 48 hrs) | result of the basic safety test [4] | further results
1 | O=CC[C@@H](O)[C@H](O)[C@H](O)CO [2DG, 2-deoxy-D-glucose] | effect was confirmed | inhibitory effect was observed; also recorded: much stronger action | antagonized | inhibit the acceleration by VEGF | effect was confirmed | inhibitory effect was observed; also recorded: particularly strong action | no antagonism | inhibitory effect | inhibited |  |  | effect on the luminal formation ([1]; 10 days, listed as 2-deoxy-D-glucose): inhibit both; inhibition at 100 µM ([1]; Homo sapiens, 0.1 mM): 70%; inhibition at 500 µM ([1]; Homo sapiens, 0.5 mM): 95%; effect on the growth of HUVEC ([2]; Example 1, 0.1-20 mM, 48 hrs, listed as 2-deoxy-D-glucose): inhibit both; inhibition at 1000 µM ([2]; Homo sapiens, HUVEC, 1 mM, 48 hrs): 70%
2 | O=C[C@H](O)[C@H](O)[C@H](O)[C@H](O)CO [A, D-allose] | effect was confirmed | inhibitory effect was observed | no apparent effect | inhibit the acceleration by VEGF | effect was confirmed | inhibitory effect was observed | antagonized | inhibitory effect | inhibited | 40 to 80% | no problem | inhibition at 20000 µM ([1]; Homo sapiens, 20 mM): 50 to 80%
3 | O=C[C@@H](O)[C@@H](O)[C@H](O)[C@H](O)CO [MAN, D-mannose] | no influence |  |  |  | effect was confirmed; also recorded: inhibitory effect for growth | inhibitory effect was observed | antagonized | inhibitory effect | inhibited | 40 to 80% |  | 
4 | O=C(CO)[C@H](O)[C@H](O)[C@H](O)CO [PSI, D-psicose] |  |  |  |  |  | no remarkable effect |  |  |  |  | no problem | 
5 | OC[C@@H](O)[C@@H](O)[C@@H](O)[C@@H](O)CO [allitol] |  |  |  |  |  |  |  |  |  |  | no problem | 
6 | VEGF |  |  |  |  |  |  |  | accelerated |  |  |  | luminal area in comparison to the control group ([1]; 10 ng/mL, 10 days): 2.8±0.6 times; cell number in comparison with the control group ([2]; 10 ng/mL, 48 hrs): 1.7±0.5 times

Source: patent US20100222285A1, “METHOD OF CONTROLLING THE PROLIFERATION OF VASCULAR ENDOTHELIAL CELLS AND INHIBITING LUMEN FORMATION” (Rare Sugar Production Technical Research Laboratories, LLC, priority 2004, published 2010)
